Assay results published in PubChem BioAssay (NCI).
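48-hour exposure; five concentrations; linearly interpolated endpoints. GI50 = concentration required for 50% inhibition of growth. TGI: total growth inhibition.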

Columns and labels:
Experiment in all cases: inhibition of tumour cell growth, NCI panel, 48 h
HT29 colon = tested on: HT29 colon
KM12 colon = tested on: KM12 colon
NCI-H23 lung = tested on: NCI-H23 lung
OVCAR-5 ovarian = tested on: OVCAR-5 ovarian
SF-268 CNS = tested on: SF-268 CNS
SF-295 CNS = tested on: SF-295 CNS
SK-MEL-28 melanoma = tested on: SK-MEL-28 melanoma
T-47D breast = tested on: T-47D breast
UACC-62 melanoma = tested on: UACC-62 melanoma
UO-31 renal = tested on: UO-31 renal

Structure (SMILES) | GI50 (HT29 colon) | TGI (HT29 colon) | GI50 (KM12 colon) | TGI (KM12 colon) | GI50 (NCI-H23 lung) | TGI (NCI-H23 lung) | GI50 (OVCAR-5 ovarian) | TGI (OVCAR-5 ovarian) | GI50 (SF-268 CNS) | TGI (SF-268 CNS) | GI50 (SF-295 CNS) | TGI (SF-295 CNS) | GI50 (SK-MEL-28 melanoma) | TGI (SK-MEL-28 melanoma) | GI50 (T-47D breast) | TGI (T-47D breast) | GI50 (UACC-62 melanoma) | TGI (UACC-62 melanoma) | GI50 (UO-31 renal) | TGI (UO-31 renal)
Nc1nc(Nc2ccc(OCc3cccc(F)c3)cc2)c2c(n1)[nH]c1ccc(O)cc12 | 2.13 µM | 4.49 µM | 3.55 µM | 11.7 µM | 4.12 µM | 22.2 µM | 3.38 µM | 14.5 µM | 3.1 µM | 12.2 µM | 2.5 µM | 7.63 µM | 2.26 µM | 5.59 µM | 1.79 µM | 4.5 µM | 1.95 µM | 4.09 µM | 1.75 µM | 4.12 µM
CC12CCC(C/C1=N\NC(N)=O)C2(C)C (stereo unspecified) |  | > 100 µM |  | > 100 µM |  | > 100 µM |  | > 100 µM |  | > 100 µM |  | > 100 µM |  | > 100 µM |  | > 100 µM |  | > 100 µM |  | > 100 µM
COc1ccc(N2C(=O)C3c4[nH]c5ccccc5c4C4C(C)CCCC4C3C2=O)cc1 (stereo unspecified) |  | > 100 µM |  | > 100 µM |  | > 100 µM |  | > 100 µM |  | > 100 µM |  | > 100 µM |  | > 100 µM |  | > 100 µM |  | > 100 µM |  | > 100 µM
Nc1n[nH]c2ccccc12 |  | > 100 µM |  | > 100 µM |  | > 100 µM |  | > 100 µM |  | > 100 µM |  | > 100 µM |  | > 100 µM |  | > 100 µM |  | > 100 µM |  | > 100 µM
O=C(O)c1cc2ccccc2c(S(=O)(=O)O)c1O |  | > 100 µM |  | > 100 µM |  | > 100 µM |  | > 100 µM |  | > 100 µM |  | > 100 µM |  | > 100 µM |  | > 100 µM |  | > 100 µM |  | > 100 µM
CC(C)(C)OC(=O)c1ccc(NCc2cc(O)ccc2O)cc1 |  | 33.7 µM |  | 12.2 µM |  | 16.8 µM |  | 21.9 µM |  | 17.3 µM |  | 29.3 µM |  | 5.28 µM |  | 2.57 µM |  | 15.9 µM |  | 2.51 µM
COC(=O)c1sc2ncc3c(c2c1N)CC(C)CC3 (stereo unspecified) |  | > 100 µM |  | > 100 µM |  | > 100 µM |  | > 100 µM |  | > 100 µM |  | > 100 µM |  | > 100 µM |  | > 100 µM |  | > 100 µM |  | > 100 µM
O=C1NN=C(c2c[nH]c3ccccc23)CC1NCc1ccccc1 (stereo unspecified) |  | > 100 µM |  | > 100 µM |  | > 100 µM |  | > 100 µM |  | > 100 µM |  | > 100 µM |  | > 100 µM |  | > 100 µM |  | > 100 µM |  | > 100 µM
COC1OC2COC(C)(C)OC2C2OC(C)(C)OC12 (stereo unspecified) |  | > 100 µM |  | > 100 µM |  | > 100 µM |  | > 100 µM |  | > 100 µM |  | > 100 µM |  | > 100 µM |  | > 100 µM |  | > 100 µM |  | > 100 µM
OCC1OC(O[C@H]2CN3[C@H](O)[C@@H](O)[C@H](O)[C@H]3C2O)C(O)C(O)C1O (stereo partly specified) |  | > 100 µM |  | > 100 µM |  | > 100 µM |  | > 100 µM |  | > 100 µM |  | > 100 µM |  | > 100 µM |  | > 100 µM |  | > 100 µM |  | > 100 µM
COC(=O)C(CCSC)NC(=O)CSc1nnc(COc2ccc(Cl)cc2)n1-c1ccccc1 (stereo unspecified) |  | 34.7 µM |  | 34.4 µM |  | 34.9 µM |  | 38.7 µM |  | 34.5 µM |  | 32.3 µM |  | 33.8 µM |  | > 78.7 µM |  | 32.7 µM |  | 13.7 µM
CC/C=C\C/C=C\C/C=C\CCCCCCCC(=O)OC(COC(=O)CCCCCCCCCCCCCCCCC)COC1OC(CO)C(O)C(O)C1O (stereo unspecified) |  | > 25 µM |  | > 25 µM |  | > 25 µM |  | > 25 µM |  | > 25 µM |  | > 25 µM |  | > 25 µM |  | > 25 µM |  | > 25 µM |  | > 25 µM
C[C@@H]1C(=O)CC2(O)[C@@]13C[C@@H](OC(=O)[C@@H]3O)[C@@H](C)[C@@]21COC1=O (stereo partly specified) |  | > 100 µM |  | > 100 µM |  | > 100 µM |  | > 100 µM |  | > 100 µM |  | > 100 µM |  | > 100 µM |  | > 100 µM |  | > 100 µM |  | > 100 µM
COc1cc(OC)c(C2c3cc4c(cc3OC(N3CCOCC3)C2C)OCO4)c(OC)c1 (stereo unspecified) |  | > 100 µM |  | > 100 µM |  | > 100 µM |  | > 100 µM |  | > 100 µM |  | > 100 µM |  | > 100 µM |  | > 100 µM |  | > 100 µM |  | > 100 µM
CCN(CC)C(=S)SS(=O)(=O)c1ccc(C)cc1 |  | 30.2 µM |  | 30.6 µM |  | > 100 µM |  | > 100 µM |  | > 100 µM |  | > 100 µM |  | 39.4 µM |  | > 100 µM |  | > 100 µM |  | 51.2 µM
O=CN(O)CC(=O)O |  | > 100 µM |  | > 100 µM |  | > 100 µM |  | > 100 µM |  | > 100 µM |  | > 100 µM |  | > 100 µM |  | > 100 µM |  | > 100 µM |  | > 100 µM
COc1cc2c3c(n(C)c(=O)c2cc1OC)-c1cc2c(cc1/C3=C/CCCCBr)OCO2 |  | > 100 µM |  | > 100 µM |  | > 100 µM |  | > 100 µM |  | > 100 µM |  | > 100 µM |  | > 100 µM |  | > 100 µM | > 100 µM | > 100 µM |  | > 100 µM
